The values that follow come from US10683334B2 (INDIANA UNIVERSITY RESEARCH AND TECHNOLOGY CORPORATION, priority 2016, dated 2020).

Square brackets hold non-standard residues; d marks the D form. Peptide text beside a SMILES is read from it. Aib = CC(C)(N)C(=O)O

By EC50 is commonly meant the concentration that produces a half-maximal response. In general, solubility refers to the dissolved amount per volume that the medium holds.

In one series the target is hGLP-1R (Homo sapiens, UniProt P43220). Briefly: cAMP luciferase reporter assay, activity at the GLP-1 receptor (Table 3).
The target of another series is glucagon receptor (Homo sapiens, UniProt P47871). Put plainly: Luciferase-based glucagon assay (cAMP reporter, HEK293 cells). Conditions: for EC50: read-out: EC50 [nM] (SDV), SDV in brackets; for % bioactivity of GCG: relative to native glucagon.
Series [1] relates to insulin induced hypoglycemia in diabetic pigs. Briefly: Pig study: reversal of insulin induced hypoglycemia. It counts as in vivo, Yucatan miniature swine. The conditions noted are these: insulin detemir 0.5 U/kg s.c. at 0 min, peptide 10 nmoles/kg at 240 min. Here is the method:
Male diabetic Yucatan miniature swine (4 animals/group) were fed and administered NPH insulin at 8:00 AM and at 12 h prior to the initiation of the study, then fasted until the completion of the final blood glucose measurements. Insulin NPH doses were adjusted based on glucose levels and the animals were randomized to achieve balanced glucose levels across groups. […] Blood glucose was measured at −5, 0 (Pre-Dose), 30, 60, 120, 240, 245, 250, 260, 280, 300, 330, 360 and 480 minutes using a handheld glucometer. The same instrument was used for all animals and two readings were taken per time point to insure consistency. The statistical analysis of the results obtained in the in vivo experiments was performed using Prism 6.0h (GraphPad Software, Calif.) applying regular two-way ANOVA followed by Sidak multiple comparison test between the two treatments. […] The results are presented as means±SEM of four replicates per group.

A short description of series [2]: Thioflavin-T fluorescence assay (fibrillation/aggregation). It counts as physicochemical.
Description: The Thioflavin T (ThT) Assay measures changes of in fluorescence intensity of ThT upon binding to amyloid fibrils. The enhanced fluorescence can be observed by fluorescence microscopy or by fluorescent spectroscopy. The spectroscopic assay is commonly used to monitor fibrilization over time, but the assay is not strictly quantitative and differences in binding have been observed for samples after lyophilization.
Prepare a ThT stock solution by adding 8 mg ThT to 10 mL phosphate buffer (10 mM phosphate, 150 mM NaCl, pH 7.0) and filter through a 0.2 μm syringe filter. This stock solution should be stored in the dark and is stable for about one week.
Dilute the stock solution into the phosphate buffer (1 mL ThT stock to 50 mL buffer) on the day of analysis to generate the working solution.
Add an aliquot of untreated protein solution (5-10 μL) to the cuvette, stir for 1 min, and measure the intensity over 60 s. This serves as the control sample. […]
Lyophilized peptides were dissolved in appropriate buffer at concentration ˜8-9 mg/mL (1-5 in 0.1N hydrochloric acid; 7, 9 and 11 in 50 mM Sodium Phosphate, 150 mM of sodium chloride, pH7.4). Exact concentration was calculated based on UV absorbance at λ=280 nm and all samples were dissolved further down to equal concentration of 5 mg/mL. […] Fibrillation was measured according to modified Thioflavin-T fluorescence assay protocol. […]
The nature of the next series: physchem. Conditions: for solubility at 1 h: pH 7.4. Here is the method:
1 or 5 mg of pre-lyophilized peptide in 2 mL Eppendorf tube was treated with 200-400 uL of phosphate buffer (PBS: 50 mM sodium phosphate, 150 mM of sodium chloride, pH7.4). Samples were then vortexed and sonicated for 10 min then equilibrated at RT for 1H, and then centrifuged at 10 krpms for 10 min Concentration of the peptides in obtained supernatant was determined by measuring UV absorbance at λ=280 nm. […] Concentration in aliquots was reassessed as previously with UV absorbance. Change in peptide concentration was evaluated after 48 h and 7 days of storage at 4° C.

The mark [3] stands for this setting: luciferase-based glucagon assay.

Chain of glucagon receptor (P47871 26-477): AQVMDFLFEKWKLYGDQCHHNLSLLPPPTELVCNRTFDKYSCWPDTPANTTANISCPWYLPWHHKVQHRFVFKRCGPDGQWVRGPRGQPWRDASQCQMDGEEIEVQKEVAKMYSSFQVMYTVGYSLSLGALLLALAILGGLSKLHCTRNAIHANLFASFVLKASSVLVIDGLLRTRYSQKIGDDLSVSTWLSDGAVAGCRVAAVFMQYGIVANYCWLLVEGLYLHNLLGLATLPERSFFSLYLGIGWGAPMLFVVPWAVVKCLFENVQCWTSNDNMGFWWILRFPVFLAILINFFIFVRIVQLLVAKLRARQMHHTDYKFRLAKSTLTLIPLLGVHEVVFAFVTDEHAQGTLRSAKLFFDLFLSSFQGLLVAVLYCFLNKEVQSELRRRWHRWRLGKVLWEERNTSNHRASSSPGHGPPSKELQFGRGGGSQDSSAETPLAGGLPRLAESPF
Chain of hGLP-1R (P43220 24-463): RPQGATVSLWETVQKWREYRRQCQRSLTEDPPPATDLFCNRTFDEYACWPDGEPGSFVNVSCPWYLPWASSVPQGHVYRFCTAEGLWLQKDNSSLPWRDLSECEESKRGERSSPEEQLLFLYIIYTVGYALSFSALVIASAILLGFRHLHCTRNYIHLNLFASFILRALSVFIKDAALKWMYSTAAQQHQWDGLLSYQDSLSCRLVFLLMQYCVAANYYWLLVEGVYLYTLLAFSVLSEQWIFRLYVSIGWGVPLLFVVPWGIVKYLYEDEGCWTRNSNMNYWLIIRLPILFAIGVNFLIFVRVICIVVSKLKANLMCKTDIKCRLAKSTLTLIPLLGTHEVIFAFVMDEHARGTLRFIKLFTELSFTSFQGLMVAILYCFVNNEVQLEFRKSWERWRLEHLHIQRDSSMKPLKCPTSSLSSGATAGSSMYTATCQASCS
Description for glucagon receptor: At the end of the incubation 100 microliters of LucLite luminescence substrate reagent (Perkin-Elmer, Wellesley, Mass.) were added to each well. […] The luminescent light output indicates activation of the luciferase reporter gene, which in turn is a measure of the activation of the receptor.

In the case of `CSCC[C@H](NC(=O)[C@H](CC(C)C)NC(=O)[C@H](Cc1c[nH]c2ccccc12)NC(=O)[C@H](CCC(N)=O)NC(=O)[C@@H](NC(=O)[C@H](Cc1ccccc1)NC(=O)[C@H](CC(=O)O)NC(=O)[C@@H](CCC(N)=O)NC(=O)[C@H](C)NC(=O)[C@H](CCCNC(=N)N)NC(=O)[C@H](CCCNC(=N)N)NC(=O)C(C)(C)NC(=O)[C@H](CC(=O)O)NC(=O)[C@H](CC(C)C)NC(=O)[C@H](Cc1ccc(O)cc1)NC(=O)[C@H](CCCCN)NC(=O)[C@H](CO)NC(=O)[C@H](Cc1cccnc1)NC(=O)[C@H](CC(=O)O)NC(=O)[C@H](CO)NC(=O)[C@@H](NC(=O)[C@H](Cc1ccccc1)NC(=O)[C@@H](NC(=O)CNC(=O)[C@H](CCC(N)=O)NC(=O)[C@H](CO)NC(=O)[C@@H](N)Cc1c[nH]cn1)[C@@H](C)O)[C@@H](C)O)C(C)C)C(=O)N[C@@H](CC(N)=O)C(=O)N[C@H](C(=O)O)[C@@H](C)O` [SEQ ID NO: 971, 3-Pal10, Aib16, q20], the EC50 at hGLP-1R was > 10 nM.
For the compound `CSCC[C@H](NC(=O)[C@H](CC(C)C)NC(=O)[C@H](Cc1c[nH]c2ccccc12)NC(=O)[C@H](CCC(N)=O)NC(=O)[C@@H](NC(=O)[C@H](Cc1ccccc1)NC(=O)[C@H](CC(=O)O)NC(=O)[C@H](CCC(N)=O)NC(=O)[C@H](C)NC(=O)[C@H](CCCNC(=N)N)NC(=O)[C@H](CCCNC(=N)N)NC(=O)C(C)(C)NC(=O)[C@H](CC(=O)O)NC(=O)[C@H](CC(C)C)NC(=O)[C@H](Cc1cccnc1)NC(=O)[C@H](CCCCN)NC(=O)[C@H](CO)NC(=O)[C@H](Cc1cccnc1)NC(=O)[C@H](CC(=O)O)NC(=O)[C@H](CO)NC(=O)[C@@H](NC(=O)[C@H](Cc1cccnc1)NC(=O)[C@@H](NC(=O)CNC(=O)[C@H](CCC(N)=O)NC(=O)[C@H](CO)NC(=O)[C@@H](N)Cc1cnc[nH]1)[C@@H](C)O)[C@@H](C)O)C(C)C)C(=O)N[C@@H](CC(N)=O)C(=O)N[C@H](C(=O)O)[C@@H](C)O` [Compound 9, HSQGTXTSDXSKXLDZRRAQDFVQWLMNT], on glucagon receptor (setting [3]), the “in vitro efficacy / potency (in words)” value is “fully potent” and the EC50 worked out at 0.0714 nM. Further, the “% bioactivity of GCG” value on glucagon receptor is 28%. The “reversal of insulin induced hypoglycemia (blood glucose)” value in series [1] was “reverse insulin induced hypoglycemia”. In series [2] (5 mg/mL, 37° C. 48H without agitation, then 40° C. 48H with agitation), the “resistance to fibrillation (thioflavin-T fluorescence, FIG. 2)” value was “resistant to fibrillation”. In addition, the “stability / resistance to fibrillation (ThT assay, FIG. 8)” value in series [2] (45 hours at 37° C., pH 7.0 in phosphate buffer) is listed as “showed stability”. In addition, the solubility in “physchem” (pH 7) was > 10000 µg/mL. For the same compound, the solubility at 1 h in the series “physchem” was > 10000 µg/mL.
Regarding `CSCC[C@H](NC(=O)[C@H](CC(C)C)NC(=O)[C@H](Cc1c[nH]c2ccccc12)NC(=O)[C@H](CCC(N)=O)NC(=O)[C@@H](NC(=O)[C@H](Cc1ccccc1)NC(=O)[C@H](CC(=O)O)NC(=O)[C@H](CCC(N)=O)NC(=O)[C@H](C)NC(=O)[C@H](CCCNC(=N)N)NC(=O)[C@H](CCCNC(=N)N)NC(=O)C(C)(C)NC(=O)[C@H](CC(=O)O)NC(=O)[C@H](CC(C)C)NC(=O)[C@H](Cc1ccncc1)NC(=O)[C@H](CCCCN)NC(=O)[C@H](CO)NC(=O)[C@H](Cc1ccncc1)NC(=O)[C@H](CC(=O)O)NC(=O)[C@H](CO)NC(=O)[C@@H](NC(=O)[C@H](Cc1ccccc1)NC(=O)[C@@H](NC(=O)CNC(=O)[C@H](CCC(N)=O)NC(=O)[C@H](CO)NC(=O)[C@@H](N)Cc1c[nH]cn1)[C@@H](C)O)[C@@H](C)O)C(C)C)C(=O)N[C@@H](CC(N)=O)C(=O)N[C@H](C(=O)O)[C@@H](C)O` [Compound 8, HSQGTFTSDUSKULDZRRAQDFVQWLMNT], at glucagon receptor (setting [3]), the EC50 was 0.0309 nM. The “% bioactivity of GCG” value at glucagon receptor is on record as 66%. The solubility at 1 h in “physchem” was > 10000 µg/mL.
As for `CSCC[C@H](NC(=O)[C@H](CC(C)C)NC(=O)[C@H](Cc1c[nH]c2ccccc12)NC(=O)[C@H](CCC(N)=O)NC(=O)[C@@H](NC(=O)[C@H](Cc1ccccc1)NC(=O)[C@H](CC(=O)O)NC(=O)[C@@H](CCC(N)=O)NC(=O)[C@H](C)NC(=O)[C@H](CCCNC(=N)N)NC(=O)[C@H](CCCNC(=N)N)NC(=O)C(C)(C)NC(=O)[C@H](CC(=O)O)NC(=O)[C@H](CC(C)C)NC(=O)[C@H](Cc1ccc(O)cc1)NC(=O)[C@H](CCCCN)NC(=O)[C@H](CO)NC(=O)[C@H](Cc1ccc(O)cc1)NC(=O)[C@H](CC(=O)O)NC(=O)[C@H](CO)NC(=O)[C@@H](NC(=O)[C@H](Cc1ccccc1)NC(=O)[C@@H](NC(=O)CNC(=O)[C@H](CCC(N)=O)NC(=O)[C@H](CO)NC(=O)[C@@H](N)Cc1c[nH]cn1)[C@@H](C)O)[C@@H](C)O)C(C)C)C(=O)N[C@@H](CC(=O)O)C(=O)N[C@@H](CCC(=O)O)C(=O)O` [SEQ ID NO: 981, Aib16, q20, D28, E29] (H-HSQGTFTSDYSKYLD[Aib]RRA[dQ]DFVQWLMDE-OH; N-terminus and C-terminus assumed), at hGLP-1R, the EC50 was > 10 nM.
